Results published in US11840686B2, “Modulation of prekallikrein (PKK) expression” (Ionis Pharmaceuticals, Inc., priority 2013, dated 2023).
Strand notation (5' to 3'): a small letter for the sugar, then the base; units joined by * are phosphorothioate-linked, units joined directly phosphodiester-linked; [ ] holds rarer units or linkages, { } end groups; capitals alone tell only the bases. e = 2'-O-(2-methoxyethyl) (MOE); [5mC] = 5-methylcytosine; d = 2'-deoxy (DNA)

How the values were obtained:
[1] = test system: human PKK mRNA; assay: Dose-dependent antisense inhibition of human PKK in HepaRG cells, 0.19-5.00 uM (Example 5); format: cell-based; conditions: HepaRG cells; for percent inhibition of PKK mRNA, 0.19 μM: 0.19 μM antisense oligonucleotide; for percent inhibition of PKK mRNA, 0.56 μM: 0.56 μM antisense oligonucleotide; for percent inhibition of PKK mRNA, 1.67 μM: 1.67 μM antisense oligonucleotide; for percent inhibition of PKK mRNA, 5.00 μM: 5.00 μM antisense oligonucleotide
How it was run: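 PKK mRNA knockdown was measured by real-time PCR (primer probe set RTS3454) about 16 h after electroporating 20,000 HepaRG cells per well with oligonucleotide at four doses from 0.19 to 5.00 μM. Levels were adjusted to RIBOGREEN-measured total RNA, and IC50 values were calculated.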

[2] = test system: human PKK mRNA; assay: Antisense inhibition of human PKK mRNA in HepaRG cells, 5,000 nM (Example 2); format: cell-based; conditions: HepaRG cells, electroporation with 5,000 nM antisense oligonucleotide, approximately 24 hours, PKK mRNA by RT-PCR (RTS3454), relative to untreated control cells
How it was run: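 Chimeric MOE gapmers with full phosphorothioate backbones were tested once at 5,000 nM in electroporated HepaRG cells. After about 24 hours, quantitative PCR measured PKK mRNA relative to untreated control cells.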

[3] = electroporation, approximately 16 hours, Table 36
[4] = electroporation, approximately 16 hours, Table 35
[5] = 4 point dose response, Table 35
[6] = electroporation, approximately 16 hours, Table 38
[7] = electroporation, approximately 16 hours, Table 39
[8] = electroporation, approximately 16 hours, Table 37
[9] = 4 point dose response, Table 37

547298 (antisense eT*eT*eG*eG*eG*dT*dG*dG*dA*dA*dT*dG*dT*dG*d[5mC]*eA*e[5mC]*e[5mC]*eT*e[5mC]) [compound 547298]
percent inhibition of PKK at 0.19 μM [1, 3]: 32% | percent inhibition of PKK at 0.56 μM [1, 3]: 61% | percent inhibition of PKK at 1.67 μM [1, 3]: 74% | percent inhibition of PKK at 5.00 μM [1, 3]: 90% | IC50 ([1]; 4 point dose response, Table 36): 400 nM | percent inhibition of PKK mRNA, 0.19 μM [1]: 0% | percent inhibition of PKK mRNA, 0.56 μM [1]: 12% | percent inhibition of PKK mRNA, 1.67 μM [1]: 67% | percent inhibition of PKK mRNA, 5.00 μM [1]: 87% | IC50 ([1]; 0.19-5.00 μM): 1700 nM | % inhibition ([2]; Table 5 experiment): 90%

547335 (antisense eT*eT*eA*eT*eA*dA*dA*dT*dG*dT*d[5mC]*dT*d[5mC]*dG*dA*eT*eG*eG*e[5mC]*eA) [compound 547335]
percent inhibition of PKK at 0.19 μM [1, 4]: 8% | percent inhibition of PKK at 0.56 μM [1, 4]: 52% | percent inhibition of PKK at 1.67 μM [1, 4]: 85% | percent inhibition of PKK at 5.00 μM [1, 4]: 92% | IC50 [1, 5]: 700 nM | percent inhibition of PKK mRNA, 0.19 μM [1]: 0% | percent inhibition of PKK mRNA, 0.56 μM [1]: 13% | percent inhibition of PKK mRNA, 1.67 μM [1]: 73% | percent inhibition of PKK mRNA, 5.00 μM [1]: 95% | IC50 ([1]; 0.19-5.00 μM): 1300 nM | % inhibition ([2]; Table 6 experiment): 93%

547337 (antisense eA*eA*e[5mC]*eT*e[5mC]*d[5mC]*dT*dT*dT*dA*dT*dA*dA*dA*dT*eG*eT*e[5mC]*eT*e[5mC]) [compound 547337]
percent inhibition of PKK at 0.19 μM [1, 6]: 23% | percent inhibition of PKK at 0.56 μM [1, 6]: 41% | percent inhibition of PKK at 1.67 μM [1, 6]: 55% | percent inhibition of PKK at 5.00 μM [1, 6]: 79% | IC50 ([1]; 4 point dose response, Table 38): 1000 nM | % inhibition ([2]; Table 6 experiment): 84%

547340 (antisense e[5mC]*eT*e[5mC]*e[5mC]*eT*d[5mC]*dT*d[5mC]*dA*dT*dA*dT*d[5mC]*dA*dA*e[5mC]*eT*e[5mC]*e[5mC]*eT) [compound 547340]
percent inhibition of PKK at 0.19 μM [1, 4]: 46% | percent inhibition of PKK at 0.56 μM [1, 4]: 79% | percent inhibition of PKK at 1.67 μM [1, 4]: 88% | percent inhibition of PKK at 0.19 0μM ([1]; 0.19 0μM, electroporation, approximately 16 hours, Table 41): 34% | percent inhibition of PKK at 0.56 0μM ([1]; 0.56 0μM, electroporation, approximately 16 hours, Table 41): 84% | percent inhibition of PKK at 1.67 1μM ([1]; 1.67 1μM, electroporation, approximately 16 hours, Table 41): 96% | IC50 [1, 5]: 200 nM | IC50 ([1]; 4 point dose response, Table 41): 300 nM | % inhibition ([2]; Table 6 experiment): 93%

547341 (antisense eG*eA*e[5mC]*eT*e[5mC]*d[5mC]*dT*d[5mC]*dT*d[5mC]*dA*dT*dA*dT*d[5mC]*eA*eA*e[5mC]*eT*e[5mC]) [compound 547341]
percent inhibition of PKK at 0.19 μM [1, 7]: 36% | percent inhibition of PKK at 0.56 μM [1, 7]: 58% | percent inhibition of PKK at 1.67 μM [1, 7]: 91% | percent inhibition of PKK at 5.00 μM [1, 7]: 95% | IC50 ([1]; 4 point dose response, Table 39): 300 nM | percent inhibition of PKK mRNA, 0.19 μM [1]: 45% | percent inhibition of PKK mRNA, 0.56 μM [1]: 44% | percent inhibition of PKK mRNA, 1.67 μM [1]: 81% | percent inhibition of PKK mRNA, 5.00 μM [1]: 95% | IC50 ([1]; 0.19-5.00 μM): 600 nM | % inhibition ([2]; Table 6 experiment): 87%

547349 (antisense e[5mC]*eT*eT*e[5mC]*eA*dA*d[5mC]*dA*d[5mC]*dT*dG*d[5mC]*dT*dA*dA*e[5mC]*e[5mC]*eT*eT*eA) [compound 547349]
percent inhibition of PKK at 0.19 μM [1, 8]: 0% | percent inhibition of PKK at 0.56 μM [1, 8]: 8% | percent inhibition of PKK at 1.67 μM [1, 8]: 66% | percent inhibition of PKK at 5.00 μM [1, 8]: 76% | IC50 [1, 9]: 1600 nM | % inhibition ([2]; Table 6 experiment): 88%

547360 (eA*eA*e[5mC]*e[5mC]*eA*dA*dT*dT*dT*d[5mC]*dT*dG*dA*dA*dA*eG*eG*eG*e[5mC]*eA; antisense) [compound 547360]
percent inhibition of PKK at 0.19 μM [1, 8]: 8% | percent inhibition of PKK at 0.56 μM [1, 8]: 27% | percent inhibition of PKK at 1.67 μM [1, 8]: 76% | percent inhibition of PKK at 5.00 μM [1, 8]: 76% | IC50 [1, 9]: 800 nM | % inhibition ([2]; Table 6 experiment): 88%
